Test results reported in BindingDB's records for doi:10.1016/s0960-894x(99)00659-9 (Kyoto Pharmaceutical University, 2000).

assay: Inhibitory activity against porcine pancreatic elastase (PPE)

Row | IC50 | SMILES
1 | 37 µM | O=C(CCc1cccc(C(F)(F)F)c1)N[C@@H](Cc1ccccc1)C(=O)CCl [N-((S)-1-Benzyl-3-chloro-2-oxo-propyl)-3-(3-trifluoromethyl-phenyl)-propionamide]
2 | 150 µM | O=C(CCc1ccccc1)N[C@@H](Cc1ccccc1)C(=O)CCl [N-((S)-1-Benzyl-3-chloro-2-oxo-propyl)-3-phenyl-propionamide]
3 | 240 µM | O=C(CCc1ccc(F)cc1)N[C@@H](Cc1ccccc1)C(=O)CCl [N-((S)-1-Benzyl-3-chloro-2-oxo-propyl)-3-(4-fluoro-phenyl)-propionamide]
4 | 130 µM | Cc1cccc(CCC(=O)N[C@@H](Cc2ccccc2)C(=O)CCl)c1 [N-((S)-1-Benzyl-3-chloro-2-oxo-propyl)-3-m-tolyl-propionamide]
5 | > 1000 µM | O=C(CCc1cccc(O)c1)N[C@@H](Cc1ccccc1)C(=O)CCl [N-((S)-1-Benzyl-3-chloro-2-oxo-propyl)-3-(3-hydroxy-phenyl)-propionamide]
6 | 13 µM | O=C(CCc1ccc(C(F)(F)F)cc1)N[C@@H](Cc1ccccc1)C(=O)CCl [N-((S)-1-Benzyl-3-chloro-2-oxo-propyl)-3-(4-trifluoromethyl-phenyl)-propionamide]
7 | 15 µM | CC(C)c1ccc(CCC(=O)N[C@@H](Cc2ccccc2)C(=O)CCl)cc1 [N-((S)-1-Benzyl-3-chloro-2-oxo-propyl)-3-(4-isopropyl-phenyl)-propionamide]
8 | > 1000 µM | O=C(CCc1ccc(O)cc1)N[C@@H](Cc1ccccc1)C(=O)CCl [N-((S)-1-Benzyl-3-chloro-2-oxo-propyl)-3-(4-hydroxy-phenyl)-propionamide]
9 | 280 µM | O=C(CCc1cccc(F)c1)N[C@@H](Cc1ccccc1)C(=O)CCl [N-((S)-1-Benzyl-3-chloro-2-oxo-propyl)-3-(3-fluoro-phenyl)-propionamide]
10 | 85 µM | COc1ccccc1CCC(=O)N[C@@H](Cc1ccccc1)C(=O)CCl [N-((S)-1-Benzyl-3-chloro-2-oxo-propyl)-3-(2-methoxy-phenyl)-propionamide]
11 | 26 µM | O=C(/C=C/c1ccccc1)N[C@@H](Cc1ccccc1)C(=O)CCl [N-((S)-1-Benzyl-3-chloro-2-oxo-propyl)-3-phenyl-acrylamide]
12 | 90 µM | Cc1ccc(CCC(=O)N[C@@H](Cc2ccccc2)C(=O)CCl)cc1 [N-((S)-1-Benzyl-3-chloro-2-oxo-propyl)-3-p-tolyl-propionamide]
13 | 32 µM | O=C(CCc1cccc(Cl)c1Cl)N[C@@H](Cc1ccccc1)C(=O)CCl [N-((S)-1-Benzyl-3-chloro-2-oxo-propyl)-3-(2,3-dichloro-phenyl)-propionamide]
14 | 600 µM | COc1cccc(CCC(=O)N[C@@H](Cc2ccccc2)C(=O)CCl)c1 [N-((S)-1-Benzyl-3-chloro-2-oxo-propyl)-3-(3-methoxy-phenyl)-propionamide]
